The nature of data set [1]: acute toxicity (LD50) in the mouse. Conditions: in vivo.
Data set [2] relates to β-Adrenergic Receptor. The data set is described as follows: spontaneously beating rabbit atrial preparation, β-adrenergic receptor antagonist molar potency. The source says: (§1) Cardioselective β1 -adrenergic blocking activity of the compounds of the present invention can be assessed in standard in vitro pharmacological test systems such as the spontaneously beating rabbit atrial preparation and the guinea pig tracheal preparation.
(§2) A Comparison of β-Adrenergic Receptor Antagonist Molar
(§3) Potencies Determined in Rabbit Atrial and Guinea
(§4) Pig Tracheal Preparations

Data set [3] relates to isoproterenol-induced increased contractile force and heart rate. Kind of data set: inhibition of isoproterenol-induced increased contractile force and heart rate in the anesthetized dog. Format: in vivo. The note with it: Canis lupus familiaris, intravenous, isoproterenol challenge 0.2 mcg./kg. intravenous. From the text: A preferred compound of this invention, 1-(isopropylamino)-3-[4-(methylsulfonyl)-3-tolyloxy]-2-propanol hydrochloride, inhibits increased contractile force and heart rate in the anesthetized dog induced by a standard challenge dose of 0.2 mcg./kg.

Data set [4] can be described thus: acute toxicity (LD50) in the rat. The note with it: in vivo, po.
Data set [5] concerns β-Adrenergic Receptor. The data set is described as follows: guinea pig tracheal preparation, β-adrenergic receptor antagonist molar potency. The note with it: molar potency relative to propranolol = 1.
Text: as §1, §2, §3, §4

For data set [6], the system named is spontaneous hypertensive rat. Kind of data set: blood pressure lowering in the spontaneous hypertensive rat. Format: in vivo. The note with it: oral dose of 100 mg./kg. body weight. Here is the method: For the purpose of treating hypertension in a mammal, the antihypertensive process of the instant invention is carried out by systemically administering to a mammal in need of such treatment an antihypertensive effective amount of a compound selected from the group characterized by Formula I or preferably by Formula X or a pharmaceutically acceptable non-toxic acid addition salt thereof. By systemic administration, it is intended to include both oral and parenteral routes. Examples of parenteral administration are intramuscular, intravenous, intraperitoneal,rectal, and subcutaneous administration. The dosage will vary with the form of administration and the particular compound chosen. However, from about 0.3 mg. per kg. body weight to 100 mg. per kg. body weight of a compound characterized by Formula I administered in effective single or multiple dosage units is generally satisfactory. In accordance with conventional clinical practice, the antihypertensive agent is administered at a dosage substantially less than the dose of the compound thought to be effective. Thereafter, the dosage is increased by small increments until the optimum antihypertensive effect under the circumstances is reached. At effective antihypertensive dosage levels, the compounds of this invention are substantially free of harmful or deleterious side effects. […]

Molecules are shown by their SMILES. Where two headings read alike, the source gives them in different places.

Consider two molecules from patent US4119729A, “Alkylsulfonylphenoxypropanolamine therapeutic process” (Mead Johnson & Company, priority 1977, dated 1978).

A word on the LD50: it is the dose expected to kill half of the subjects tested. What is called ED50 is the dose at which the effect has come halfway, by size or by number of responders.

As to `Cc1cc(OCC(O)CNC(C)C)ccc1S(C)(=O)=O.Cl` (stereo not drawn) [1-(ISOPROPYLAMINO)-3-[4-(METHYLSULFONYL)-m-TOLYLOXY]-2-PROPANOL HYDROCHLORIDE], the LD50 in data set [1] (ip, read-out: intraperitoneal LD50) came out at 339 mg/kg; in data set [1] (po, read-out: oral LD50) it was 1500 mg/kg; in data set [4], 1790 mg/kg. Also, the “Potency Ratio Atria” value with β-Adrenergic Receptor [2] (molar potency relative to propranolol = 1, rabbit atrial preparation) came out at 0.37. Also, the “Cardioselectivity Ratio: Atria/Trachea” value with β-Adrenergic Receptor [2] (ratio of potency ratios, rabbit atria / guinea pig trachea) stood at 37. Also, the ED50 is 0.71 mg/kg in data set [3] (read-out: ED50, inhibition of increased contractile force) and 2.02 mg/kg in data set [3] (read-out: ED50, inhibition of increased heart rate). For the same molecule, the “Potency Ratio Trachea” value in the data set on β-Adrenergic Receptor [5] was 0.01.
Turning to `Cc1cc(OCC(O)CNC(C)COc2ccccc2)ccc1S(C)(=O)=O` (stereo not drawn) [3-[4-(methylsulfonyl)-m-tolyloxy]-1-(1-phenoxy-2-propylamino)-2-propanol], the lowered blood pressure entry in data set [6] is listed as “about 22.4 mm Hg”.
